Measured values reported in patent US5627191A, “Therapeutic agents” (The Boots Company PLC, priority 1992, dated 1997).

How the values were obtained:
[1] = Hygroscopicity observed in preparation; type: physicochemical; conditions: dried before use by heating in vacuo
[2] = molecular target: T1, adrenal membrane angiotensin II receptor (Oryctolagus cuniculus, UniProt P34976); experiment: Test A: binding affinity to the adrenal membrane angiotensin II receptor in vitro; design: species or system rabbit (male New Zealand white); conditions: rabbit adrenal membranes, 0.05 nM [^125 I]angiotensin II, 60 minutes at 25° C.; read-out: Ki from Test A
T1 construct: Aliquots of rabbit adrenal membranes containing 10-30 μg protein were incubated; from tissue; host or cells: adrenal gland membranes of male New Zealand white rabbits
T1 sequence (P34976 1-359): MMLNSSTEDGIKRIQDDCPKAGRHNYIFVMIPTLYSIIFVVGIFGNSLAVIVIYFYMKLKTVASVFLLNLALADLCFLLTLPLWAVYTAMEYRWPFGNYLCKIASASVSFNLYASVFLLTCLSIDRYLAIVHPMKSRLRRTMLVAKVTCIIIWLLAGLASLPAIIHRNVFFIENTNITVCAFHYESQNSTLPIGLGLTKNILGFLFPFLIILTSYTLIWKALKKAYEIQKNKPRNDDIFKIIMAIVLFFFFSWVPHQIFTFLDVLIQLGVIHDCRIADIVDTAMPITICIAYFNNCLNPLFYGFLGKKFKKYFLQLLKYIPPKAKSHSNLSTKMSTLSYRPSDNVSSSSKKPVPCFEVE
Method: In test A the binding affinity of compounds to the adrenal membrane angiotensin II receptor was determined in vitro and in tests B and C the antihypertensive effect of the compounds was measured in vivo. A detailed description of the tests follows. Test A 1) Preparation of Membranes Adrenal glands from male New Zealand white rabbits were homogenised on ice in 20 mM aqueous sodium bicarbonate solution containing 50 μM PMSF (phenylmethanesulphonyl fluoride) (2 ml/g wet weight) using a Polytron (Trademark) homogeniser for 3×15 seconds at setting 8. The homogenate was centrifuged at 900 g for 10 minutes at 4° C. and the pellet was discarded. The supernatant was recentrifuged at 30000 g for 30 minutes at 4° C., and the resulting pellet was resuspended in assay buffer (50 mM Tris-HCl, pH 7.4, containing 1 mM EDTA, 6.5 mM MgCl2, 125 mM NACl, 50 μM PMSF, 5 μg/ml pepstatin and 50 μg/ml each of leupeptin, antipain, aprotinin and chymostatin): 10 ml per g original tissue wet weight. Polyethylene glycol was added (final concentration 30%) as a cryopreservant and the membrane preparation divided into aliquots and stored at -80° C. until required. Protein was determined by a modification of the method of Lowry (Markwell et al, (1978) Anal. Biochem., 87: 206-210). 2) Binding Assay Aliquots of rabbit adrenal membranes containing 10-30 μg protein were incubated with 0.05 nM [^125 I]angiotensin II in the presence or absence of potential angiotensin II antagonists in 1 ml polyamide tubes in a total volume of 200 μI assay buffer. After incubation for 60 minutes am 25° C. the reaction was terminated by the addition of ice-cold assay buffer, and the bound and free radioactivity was separated through Skatron (Trademark) receptor-binding filters, pre-wetted with assay buffer, using a Skatron cell harvester. The filters were washed with ice-cold phosphate buffered saline, dried, and the trapped radioactivity was determined using a gamma counter. Non-specific binding, measured in the presence of 2 μM unlabelled angiotensin II, was subtracted from total binding to obtain specific binding. Radioligand binding curves were analysed using EBDA and LIGAND (Cambridge Biosoft). Values for binding affinity were obtained by nonlinear regression analysis of untransformed data. The activities of the compounds described in the Examples given hereinafter are set out below in Table A, Column 1.

Row | hygroscopic [1] | Ki [2] [nM] | SMILES
1 | appeared to be hygroscopic | 21.5 | CCc1nc2c(C)cc(C)nc2n1Cc1ccc(-c2ccccc2-c2c(OC(C)OC(=O)C(C)(C)C)c(=O)c2=O)cc1 (stereo not shown) [Example 17, 1-[2-[4'-(2-ethyl-5,7-dimethyl-3H-imidazo[4,5-b]pyrid-3-ylmethyl)biphenyl-2-yl]-3,4-dioxocyclobut-1-en-1-yloxy]ethyl pivalate 0.22 ethyl acetate solvate]
2 | appeared to be hygroscopic | 1890 | CCc1nc2c(C)cc(C)nc2n1Cc1ccc(-c2ccccc2-c2c(N(C)C)c(=O)c2=O)cc1 [Example 16, 3-dimethylamino-4-[4'-(2-ethyl-5,7-dimethyl-3H-imidazo-[4,5-b]pyrid-3-ylmethyl)biphenyl-2-yl]cyclobut-3-ene-1,2-dione]
